Results reported in PubChem BioAssay (NCI).
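The compound was tested at five concentrations on cells cultured in 96-well plates, with a 48-hour exposure period. Definition used: TGI = concentration required for complete inhibition of growth.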

These compounds were tested on NCI-H23 lung (assay: DTP human tumour cell line panel, 48 h).

`O=C(c1cccs1)N1CCc2ccccc2C1` and `O=c1c2ccccc2nc(Cc2nc(-c3ccc(Cl)cc3)cs2)n1-c1ccc(Cl)cc1` cannot be ordered by TGI: greater than 100 µM for the first, greater than 100 µM for the second.

`CCN(CC)CCSc1c2cc(OC)ccc2nc2ccc(OC)cc12` and `CCOC(=O)c1ccc(NCc2ccc3oc(=O)c(-c4ccccc4)nc3c2)cc1` cannot be ordered by TGI: greater than 25.7 µM for the first, 44.5 µM for the second.

With `CCOC(=O)C1C(=O)CC1(C)C` (configuration not stated) the TGI was greater than 10 µM.

Each compound was assayed on NCI-H460 lung (assay: DTP human tumour cell line panel, 48 h).

First: C(/C=C/Nc1ccc(Oc2ccccc2)cc1)=Nc1ccc(Oc2ccccc2)cc1
Second: Nc1nc(-c2ccccc2)cc(-c2ccc(OCc3ccccc3)cc2O)n1
The TGI of the first is lower: 30.6 µM for the first, greater than 100 µM for the second.

`Nc1nc(-[n+]2ccc(-c3ccncc3)cc2)nc(Cl)c1Cl` and `O=c1c2ccccc2nc(Cc2nc(-c3ccc(Cl)cc3)cs2)n1-c1ccc(Cl)cc1` cannot be ordered by TGI: greater than 100 µM for the first, greater than 100 µM for the second.

First: C[C@@H](c1ccccc1)n1c(N)c(C#N)c2ccc([N+](=O)[O-])cc2c1=O
Second: CC1(C)OC(=O)N(c2ccccc2)C12C=Cc1cc([N+](=O)[O-])ccc1O2 (configuration not stated)
The TGI of the first is lower: 36 µM for the first, greater than 100 µM for the second.

`O=C1CC(c2cccc([N+](=O)[O-])c2)C2(C(=O)NC(=O)NC2=O)C(c2cccc([N+](=O)[O-])c2)C1` (configuration not stated) and `CC(=O)Oc1ccc2cc(-c3ccccc3OC(C)=O)c(=O)oc2c1` cannot be ordered by TGI: greater than 100 µM for the first, greater than 100 µM for the second.

`CCCc1c(O)nc(Nc2nc3ccccc3[nH]2)[nH]c1=O` and `CCOC(=O)Cc1nc2cc(F)c(F)cc2[nH]c1=O` cannot be ordered by TGI: greater than 100 µM for the first, greater than 100 µM for the second.

Compared with `COC1=C(OC)C(=O)C(Cc2c(C)nc3sccn23)=C(C)C1=O`, `O=C1c2ccsc2C(=O)c2sc(CO)cc21` is 28-fold lower in TGI: 61.5 µM for the first, 2.17 µM for the second.

`CCOc1ncn(-c2ccc(NC(=S)NC3OC(CO)C(O)C(O)C3O)cc2)n1` (configuration not stated) and `CCOC(=O)c1ccc(NCc2ccc3oc(=O)c(-c4ccccc4)nc3c2)cc1` cannot be ordered by TGI: greater than 100 µM for the first, greater than 100 µM for the second.

`Cn1c([C@H](C#N)c2ncccc2[N+](=O)[O-])nc2ccccc21` and `N#C[C@@H](c1ccccn1)c1ncccc1[N+](=O)[O-]` cannot be ordered by TGI: greater than 100 µM for the first, greater than 100 µM for the second.

`COCc1nc2c(OC)c(-c3nc4nc(N5CCN(C)CC5)ccc4[nH]3)cc(OC)c2n1C` and `CCN(CC)CCSc1c2cc(OC)ccc2nc2ccc(OC)cc12` cannot be ordered by TGI: 78.8 µM for the first, greater than 61 µM for the second.

First: O=C(c1ccco1)N(C(=S)OCCOc1ccccc1)c1ccccc1
Second: O=C(NC(Cc1ccccc1)(Cc1ccc(O)cn1)C(=O)O)c1ccccc1 (configuration not stated)
The TGI of the first is lower: 58.6 µM for the first, greater than 100 µM for the second.

`COC(=O)C1=CS/C(=C2\S[C@@H]3[C@H](S2)[C@H]2C=C[C@@H]3C2)S1` and `O=C(c1cccs1)N1CCc2ccccc2C1` cannot be ordered by TGI: greater than 100 µM for the first, greater than 100 µM for the second.

Compared with `CC(CC[C@@]1(C)C(=O)CCC2O[C@]21C)[C@H]1C[C@@H](c2ccoc2)OC1=O` (some centres not stated), `CN(C(=O)Cc1cccc(N=C=S)c1)[C@H]1CCCC[C@@H]1N1CCCC1` is lower in TGI: greater than 100 µM for the first, 36.3 µM for the second.

`N#C/C(=C/NC(N)=S)C(N)=O` and `CCOC(=O)C1C(=O)CC1(C)C` (configuration not stated) cannot be ordered by TGI: greater than 100 µM for the first, greater than 10 µM for the second.

The compounds below were run on NCI-H522 lung (assay: DTP human tumour cell line panel, 48 h).

Compared with `C(/C=C/Nc1ccc(Oc2ccccc2)cc1)=Nc1ccc(Oc2ccccc2)cc1`, `Nc1nc(-c2ccccc2)cc(-c2ccc(OCc3ccccc3)cc2O)n1` is 2.4-fold higher in TGI: 37.7 µM for the first, 90.7 µM for the second.

Compared with `CC1(C)OC(=O)N(c2ccccc2)C12C=Cc1cc([N+](=O)[O-])ccc1O2` (configuration not stated), `Cn1c([C@H](C#N)c2ncccc2[N+](=O)[O-])nc2ccccc21` is lower in TGI: greater than 100 µM for the first, 38.3 µM for the second.

First: O=C1CC(c2cccc([N+](=O)[O-])c2)C2(C(=O)NC(=O)NC2=O)C(c2cccc([N+](=O)[O-])c2)C1 (configuration not stated)
Second: CC(=O)Oc1ccc2cc(-c3ccccc3OC(C)=O)c(=O)oc2c1
The TGI of the first is higher: greater than 100 µM for the first, 17.9 µM for the second.

Going from `CCCc1c(O)nc(Nc2nc3ccccc3[nH]2)[nH]c1=O` to `CCOC(=O)c1ccc(NCc2ccc3oc(=O)c(-c4ccccc4)nc3c2)cc1`, the TGI falls from greater than 100 µM to 32.1 µM.

Going from `COC1=C(OC)C(=O)C(Cc2c(C)nc3sccn23)=C(C)C1=O` to `O=C1c2ccsc2C(=O)c2sc(CO)cc21`, the TGI falls from 54.9 µM to 0.259 µM (210-fold).

First: CCOc1ncn(-c2ccc(NC(=S)NC3OC(CO)C(O)C(O)C3O)cc2)n1 (configuration not stated)
Second: O=C(c1ccco1)N(C(=S)OCCOc1ccccc1)c1ccccc1
The TGI of the first is higher: greater than 100 µM for the first, 40.5 µM for the second.

Going from `COCc1nc2c(OC)c(-c3nc4nc(N5CCN(C)CC5)ccc4[nH]3)cc(OC)c2n1C` to `CCN(CC)CCSc1c2cc(OC)ccc2nc2ccc(OC)cc12`, the TGI falls from 86.4 µM to 3.1 µM (28-fold).

`N#C[C@@H](c1ccccn1)c1ncccc1[N+](=O)[O-]` and `O=C(c1cccs1)N1CCc2ccccc2C1` cannot be ordered by TGI: greater than 100 µM for the first, greater than 100 µM for the second.

`CC(CC[C@@]1(C)C(=O)CCC2O[C@]21C)[C@H]1C[C@@H](c2ccoc2)OC1=O` (some centres not stated) and `CN(C(=O)Cc1cccc(N=C=S)c1)[C@H]1CCCC[C@@H]1N1CCCC1` are within 1.5-fold of each other in TGI: 22.2 µM for the first, 27.6 µM for the second.

`O=C(NC(Cc1ccccc1)(Cc1ccc(O)cn1)C(=O)O)c1ccccc1` (configuration not stated) and `O=c1c2ccccc2nc(Cc2nc(-c3ccc(Cl)cc3)cs2)n1-c1ccc(Cl)cc1` cannot be ordered by TGI: greater than 100 µM for the first, greater than 100 µM for the second.

These compounds were tested on OVCAR-3 ovarian (assay: DTP human tumour cell line panel, 48 h).

Compared with `C(/C=C/Nc1ccc(Oc2ccccc2)cc1)=Nc1ccc(Oc2ccccc2)cc1`, `Nc1nc(-c2ccccc2)cc(-c2ccc(OCc3ccccc3)cc2O)n1` is 2.6-fold higher in TGI: 34.3 µM for the first, 89.1 µM for the second.

First: Nc1nc(-[n+]2ccc(-c3ccncc3)cc2)nc(Cl)c1Cl
Second: CC1(C)OC(=O)N(c2ccccc2)C12C=Cc1cc([N+](=O)[O-])ccc1O2 (configuration not stated)
The TGI of the first is lower: 33.5 µM for the first, greater than 100 µM for the second.

Compared with `O=C1CC(c2cccc([N+](=O)[O-])c2)C2(C(=O)NC(=O)NC2=O)C(c2cccc([N+](=O)[O-])c2)C1` (configuration not stated), `COC1=C(OC)C(=O)C(Cc2c(C)nc3sccn23)=C(C)C1=O` is 1.7-fold lower in TGI: 58.2 µM for the first, 34.3 µM for the second.
